According to publication PMC6851342 (The Journal of Biological Chemistry, 2019):

Target: T1, WT EhV1 (A3B3DF complex, V1-ATPase from Enterococcus hirae) (Enterococcus hirae, UniProt Q08636+Q08637)
T1 construct: gene ntpA
Assay: single-molecule rotation, ADP-dependent backward steps and pause durations
Format: biochemical
Conditions: ATPγS-driven rotation; 10-100 μM ATPγS, 1-300 μM ADP, no ADP-quenching system, pH 6.5

Question: With `Nc1ncnc2c1ncn2[C@@H]1O[C@H](COP(=O)(O)OP(=O)(O)O)[C@@H](O)[C@H]1O` [ADP] as the molecule, how does the “single-molecule rotation, ADP-dependent backward steps and pause durations” value read?
Answer: the addition of ADP causes frequent backward steps during the rotation
